According to ChEMBL document CHEMBL1649448, “Atorvastatin is a promising partner for antimalarial drugs in treatment of Plasmodium falciparum malaria” (Antimicrob Agents Chemother, 2009):

System: Plasmodium falciparum
Assay: Antimalarial activity against Plasmodium falciparum FCM29 assessed as incorporation of [3H]hypoxanthine after 48 hrs by scintillation counter
Format: functional, organism-based

SMILES | IC50
OC(c1cc(C(F)(F)F)nc2c(C(F)(F)F)cccc12)C1CCCCN1 (stereo not given) [MEFLOQUINE] | 0.014 µM
CCCCN(CCCC)CC(O)c1cc(Cl)cc2c1-c1ccc(Cl)cc1/C2=C/c1ccc(Cl)cc1 (stereo not given) [LUMEFANTRINE] | 0.008 µM
CCNCc1cc(Nc2ccnc3cc(Cl)ccc23)ccc1O [DESETHYL AMODIAQUINE] | 0.023 µM

System: Plasmodium falciparum
Assay: Antimalarial activity against Plasmodium falciparum HB3 assessed as incorporation of [3H]hypoxanthine after 48 hrs by scintillation counter
Format: functional, organism-based

SMILES | IC50
OC(c1cc(C(F)(F)F)nc2c(C(F)(F)F)cccc12)C1CCCCN1 (stereo not given) [MEFLOQUINE] | 0.014 µM
CCCCN(CCCC)CC(O)c1cc(Cl)cc2c1-c1ccc(Cl)cc1/C2=C/c1ccc(Cl)cc1 (stereo not given) [LUMEFANTRINE] | 0.008 µM
CCNCc1cc(Nc2ccnc3cc(Cl)ccc23)ccc1O [DESETHYL AMODIAQUINE] | 0.023 µM

System: Plasmodium falciparum
Assay: Antimalarial activity against Plasmodium falciparum IMT 8425 assessed as incorporation of [3H]hypoxanthine after 48 hrs by scintillation counter
Format: functional, organism-based

SMILES | IC50
OC(c1cc(C(F)(F)F)nc2c(C(F)(F)F)cccc12)C1CCCCN1 (stereo not given) [MEFLOQUINE] | 0.014 µM
CCCCN(CCCC)CC(O)c1cc(Cl)cc2c1-c1ccc(Cl)cc1/C2=C/c1ccc(Cl)cc1 (stereo not given) [LUMEFANTRINE] | 0.008 µM
CCNCc1cc(Nc2ccnc3cc(Cl)ccc23)ccc1O [DESETHYL AMODIAQUINE] | 0.023 µM

System: Plasmodium falciparum
Assay: Antimalarial activity against Plasmodium falciparum IMT 10336 assessed as incorporation of [3H]hypoxanthine after 48 hrs by scintillation counter
Format: functional, organism-based

SMILES | IC50
OC(c1cc(C(F)(F)F)nc2c(C(F)(F)F)cccc12)C1CCCCN1 (stereo not given) [MEFLOQUINE] | 0.014 µM
CCCCN(CCCC)CC(O)c1cc(Cl)cc2c1-c1ccc(Cl)cc1/C2=C/c1ccc(Cl)cc1 (stereo not given) [LUMEFANTRINE] | 0.008 µM
CCNCc1cc(Nc2ccnc3cc(Cl)ccc23)ccc1O [DESETHYL AMODIAQUINE] | 0.023 µM

System: Plasmodium falciparum
Assay: Antimalarial activity against Plasmodium falciparum IMT 9881 assessed as incorporation of [3H]hypoxanthine after 48 hrs by scintillation counter
Format: functional, organism-based

SMILES | IC50
OC(c1cc(C(F)(F)F)nc2c(C(F)(F)F)cccc12)C1CCCCN1 (stereo not given) [MEFLOQUINE] | 0.014 µM
CCCCN(CCCC)CC(O)c1cc(Cl)cc2c1-c1ccc(Cl)cc1/C2=C/c1ccc(Cl)cc1 (stereo not given) [LUMEFANTRINE] | 0.008 µM
CCNCc1cc(Nc2ccnc3cc(Cl)ccc23)ccc1O [DESETHYL AMODIAQUINE] | 0.023 µM

System: Plasmodium falciparum
Assay: Antimalarial activity against Plasmodium falciparum IMT Bres assessed as incorporation of [3H]hypoxanthine after 48 hrs by scintillation counter
Format: functional, organism-based

SMILES | IC50
OC(c1cc(C(F)(F)F)nc2c(C(F)(F)F)cccc12)C1CCCCN1 (stereo not given) [MEFLOQUINE] | 0.014 µM
CCCCN(CCCC)CC(O)c1cc(Cl)cc2c1-c1ccc(Cl)cc1/C2=C/c1ccc(Cl)cc1 (stereo not given) [LUMEFANTRINE] | 0.008 µM
CCNCc1cc(Nc2ccnc3cc(Cl)ccc23)ccc1O [DESETHYL AMODIAQUINE] | 0.023 µM

System: Plasmodium falciparum
Assay: Antimalarial activity against Plasmodium falciparum IMT A4 assessed as incorporation of [3H]hypoxanthine after 48 hrs by scintillation counter
Format: functional, organism-based

SMILES | IC50
OC(c1cc(C(F)(F)F)nc2c(C(F)(F)F)cccc12)C1CCCCN1 (stereo not given) [MEFLOQUINE] | 0.014 µM
CCCCN(CCCC)CC(O)c1cc(Cl)cc2c1-c1ccc(Cl)cc1/C2=C/c1ccc(Cl)cc1 (stereo not given) [LUMEFANTRINE] | 0.008 µM
CCNCc1cc(Nc2ccnc3cc(Cl)ccc23)ccc1O [DESETHYL AMODIAQUINE] | 0.023 µM

System: Plasmodium falciparum
Assay: Antimalarial activity against Plasmodium falciparum IMT Guy assessed as incorporation of [3H]hypoxanthine after 48 hrs by scintillation counter
Format: functional, organism-based

SMILES | IC50
OC(c1cc(C(F)(F)F)nc2c(C(F)(F)F)cccc12)C1CCCCN1 (stereo not given) [MEFLOQUINE] | 0.014 µM
CCCCN(CCCC)CC(O)c1cc(Cl)cc2c1-c1ccc(Cl)cc1/C2=C/c1ccc(Cl)cc1 (stereo not given) [LUMEFANTRINE] | 0.008 µM
CCNCc1cc(Nc2ccnc3cc(Cl)ccc23)ccc1O [DESETHYL AMODIAQUINE] | 0.023 µM

System: Plasmodium falciparum
Assay: Antimalarial activity against Plasmodium falciparum IMT L1 assessed as incorporation of [3H]hypoxanthine after 48 hrs by scintillation counter
Format: functional, organism-based

SMILES | IC50
OC(c1cc(C(F)(F)F)nc2c(C(F)(F)F)cccc12)C1CCCCN1 (stereo not given) [MEFLOQUINE] | 0.014 µM
CCCCN(CCCC)CC(O)c1cc(Cl)cc2c1-c1ccc(Cl)cc1/C2=C/c1ccc(Cl)cc1 (stereo not given) [LUMEFANTRINE] | 0.008 µM
CCNCc1cc(Nc2ccnc3cc(Cl)ccc23)ccc1O [DESETHYL AMODIAQUINE] | 0.023 µM

System: Plasmodium falciparum
Assay: Antimalarial activity against Plasmodium falciparum 3D7 assessed as incorporation of [3H]hypoxanthine after 48 hrs by scintillation counter
Format: functional, organism-based

SMILES | IC50
OC(c1cc(C(F)(F)F)nc2c(C(F)(F)F)cccc12)C1CCCCN1 (stereo not given) [MEFLOQUINE] | 0.014 µM
CCCCN(CCCC)CC(O)c1cc(Cl)cc2c1-c1ccc(Cl)cc1/C2=C/c1ccc(Cl)cc1 (stereo not given) [LUMEFANTRINE] | 0.008 µM

System: Plasmodium falciparum
Assay: Antimalarial activity against Plasmodium falciparum FCR3 assessed as incorporation of [3H]hypoxanthine after 48 hrs by scintillation counter
Format: functional, organism-based

SMILES | IC50
OC(c1cc(C(F)(F)F)nc2c(C(F)(F)F)cccc12)C1CCCCN1 (stereo not given) [MEFLOQUINE] | 0.014 µM
CCCCN(CCCC)CC(O)c1cc(Cl)cc2c1-c1ccc(Cl)cc1/C2=C/c1ccc(Cl)cc1 (stereo not given) [LUMEFANTRINE] | 0.008 µM
CCNCc1cc(Nc2ccnc3cc(Cl)ccc23)ccc1O [DESETHYL AMODIAQUINE] | 0.023 µM

System: Plasmodium falciparum
Assay: Antimalarial activity against Plasmodium falciparum 106/1 assessed as incorporation of [3H]hypoxanthine after 48 hrs by scintillation counter
Format: functional, organism-based

SMILES | IC50
OC(c1cc(C(F)(F)F)nc2c(C(F)(F)F)cccc12)C1CCCCN1 (stereo not given) [MEFLOQUINE] | 0.014 µM
CCCCN(CCCC)CC(O)c1cc(Cl)cc2c1-c1ccc(Cl)cc1/C2=C/c1ccc(Cl)cc1 (stereo not given) [LUMEFANTRINE] | 0.008 µM
CCNCc1cc(Nc2ccnc3cc(Cl)ccc23)ccc1O [DESETHYL AMODIAQUINE] | 0.023 µM

System: Plasmodium falciparum
Assay: Antimalarial activity against Plasmodium falciparum PA assessed as incorporation of [3H]hypoxanthine after 48 hrs by scintillation counter
Format: functional, organism-based

SMILES | IC50
OC(c1cc(C(F)(F)F)nc2c(C(F)(F)F)cccc12)C1CCCCN1 (stereo not given) [MEFLOQUINE] | 0.014 µM
CCCCN(CCCC)CC(O)c1cc(Cl)cc2c1-c1ccc(Cl)cc1/C2=C/c1ccc(Cl)cc1 (stereo not given) [LUMEFANTRINE] | 0.008 µM
CCNCc1cc(Nc2ccnc3cc(Cl)ccc23)ccc1O [DESETHYL AMODIAQUINE] | 0.023 µM

System: Plasmodium falciparum
Assay: Antimalarial activity against Plasmodium falciparum IMT 31 assessed as incorporation of [3H]hypoxanthine after 48 hrs by scintillation counter
Format: functional, organism-based

SMILES | IC50
OC(c1cc(C(F)(F)F)nc2c(C(F)(F)F)cccc12)C1CCCCN1 (stereo not given) [MEFLOQUINE] | 0.014 µM
CCCCN(CCCC)CC(O)c1cc(Cl)cc2c1-c1ccc(Cl)cc1/C2=C/c1ccc(Cl)cc1 (stereo not given) [LUMEFANTRINE] | 0.008 µM
CCNCc1cc(Nc2ccnc3cc(Cl)ccc23)ccc1O [DESETHYL AMODIAQUINE] | 0.023 µM

System: Plasmodium falciparum
Assay: Antimalarial activity against Plasmodium falciparum IMT 16332 assessed as incorporation of [3H]hypoxanthine after 48 hrs by scintillation counter
Format: functional, organism-based

SMILES | IC50
OC(c1cc(C(F)(F)F)nc2c(C(F)(F)F)cccc12)C1CCCCN1 (stereo not given) [MEFLOQUINE] | 0.014 µM
CCCCN(CCCC)CC(O)c1cc(Cl)cc2c1-c1ccc(Cl)cc1/C2=C/c1ccc(Cl)cc1 (stereo not given) [LUMEFANTRINE] | 0.008 µM
CCNCc1cc(Nc2ccnc3cc(Cl)ccc23)ccc1O [DESETHYL AMODIAQUINE] | 0.023 µM

System: Plasmodium falciparum
Assay: Antimalarial activity against Plasmodium falciparum IMT 10500 assessed as incorporation of [3H]hypoxanthine after 48 hrs by scintillation counter
Format: functional, organism-based

SMILES | IC50
OC(c1cc(C(F)(F)F)nc2c(C(F)(F)F)cccc12)C1CCCCN1 (stereo not given) [MEFLOQUINE] | 0.014 µM
CCCCN(CCCC)CC(O)c1cc(Cl)cc2c1-c1ccc(Cl)cc1/C2=C/c1ccc(Cl)cc1 (stereo not given) [LUMEFANTRINE] | 0.008 µM
CCNCc1cc(Nc2ccnc3cc(Cl)ccc23)ccc1O [DESETHYL AMODIAQUINE] | 0.023 µM

System: Plasmodium falciparum
Assay: Antimalarial activity against Plasmodium falciparum IMT K4 assessed as incorporation of [3H]hypoxanthine after 48 hrs by scintillation counter
Format: functional, organism-based

SMILES | IC50
OC(c1cc(C(F)(F)F)nc2c(C(F)(F)F)cccc12)C1CCCCN1 (stereo not given) [MEFLOQUINE] | 0.014 µM
CCCCN(CCCC)CC(O)c1cc(Cl)cc2c1-c1ccc(Cl)cc1/C2=C/c1ccc(Cl)cc1 (stereo not given) [LUMEFANTRINE] | 0.008 µM
CCNCc1cc(Nc2ccnc3cc(Cl)ccc23)ccc1O [DESETHYL AMODIAQUINE] | 0.023 µM

System: Plasmodium falciparum
Assay: Antimalarial activity against Plasmodium falciparum W2 assessed as incorporation of [3H]hypoxanthine after 48 hrs by scintillation counter
Format: functional, organism-based

SMILES | IC50
OC(c1cc(C(F)(F)F)nc2c(C(F)(F)F)cccc12)C1CCCCN1 (stereo not given) [MEFLOQUINE] | 0.014 µM
CCCCN(CCCC)CC(O)c1cc(Cl)cc2c1-c1ccc(Cl)cc1/C2=C/c1ccc(Cl)cc1 (stereo not given) [LUMEFANTRINE] | 0.008 µM
CCNCc1cc(Nc2ccnc3cc(Cl)ccc23)ccc1O [DESETHYL AMODIAQUINE] | 0.023 µM

System: Plasmodium falciparum
Assay: Antimalarial activity against Plasmodium falciparum D6 assessed as incorporation of [3H]hypoxanthine after 48 hrs by scintillation counter
Format: functional, organism-based

SMILES | IC50
OC(c1cc(C(F)(F)F)nc2c(C(F)(F)F)cccc12)C1CCCCN1 (stereo not given) [MEFLOQUINE] | 0.014 µM
CCCCN(CCCC)CC(O)c1cc(Cl)cc2c1-c1ccc(Cl)cc1/C2=C/c1ccc(Cl)cc1 (stereo not given) [LUMEFANTRINE] | 0.008 µM
CCNCc1cc(Nc2ccnc3cc(Cl)ccc23)ccc1O [DESETHYL AMODIAQUINE] | 0.023 µM

System: Plasmodium falciparum
Assay: Antimalarial activity against Plasmodium falciparum IMT K14 assessed as incorporation of [3H]hypoxanthine after 48 hrs by scintillation counter
Format: functional, organism-based

SMILES | IC50
OC(c1cc(C(F)(F)F)nc2c(C(F)(F)F)cccc12)C1CCCCN1 (stereo not given) [MEFLOQUINE] | 0.014 µM
CCCCN(CCCC)CC(O)c1cc(Cl)cc2c1-c1ccc(Cl)cc1/C2=C/c1ccc(Cl)cc1 (stereo not given) [LUMEFANTRINE] | 0.008 µM
CCNCc1cc(Nc2ccnc3cc(Cl)ccc23)ccc1O [DESETHYL AMODIAQUINE] | 0.023 µM

System: Plasmodium falciparum
Assay: Antimalarial activity against Plasmodium falciparum IMT Vol assessed as incorporation of [3H]hypoxanthine after 48 hrs by scintillation counter
Format: functional, organism-based

SMILES | IC50
OC(c1cc(C(F)(F)F)nc2c(C(F)(F)F)cccc12)C1CCCCN1 (stereo not given) [MEFLOQUINE] | 0.014 µM
CCCCN(CCCC)CC(O)c1cc(Cl)cc2c1-c1ccc(Cl)cc1/C2=C/c1ccc(Cl)cc1 (stereo not given) [LUMEFANTRINE] | 0.008 µM
CCNCc1cc(Nc2ccnc3cc(Cl)ccc23)ccc1O [DESETHYL AMODIAQUINE] | 0.023 µM

System: Plasmodium falciparum
Assay: Antimalarial activity against Plasmodium falciparum IMT K2 assessed as incorporation of [3H]hypoxanthine after 48 hrs by scintillation counter
Format: functional, organism-based

SMILES | IC50
OC(c1cc(C(F)(F)F)nc2c(C(F)(F)F)cccc12)C1CCCCN1 (stereo not given) [MEFLOQUINE] | 0.014 µM
CCCCN(CCCC)CC(O)c1cc(Cl)cc2c1-c1ccc(Cl)cc1/C2=C/c1ccc(Cl)cc1 (stereo not given) [LUMEFANTRINE] | 0.008 µM
CCNCc1cc(Nc2ccnc3cc(Cl)ccc23)ccc1O [DESETHYL AMODIAQUINE] | 0.023 µM
